In one data set the target is hNav1.8 (Homo sapiens, UniProt Q9Y5Y9). Briefly: cell-based. The data set is classed as cell-based.
Data set [1] has as its target T1, hNav1.5 (Homo sapiens, UniProt Q14524). Briefly: cell-based. Format: cell-based.
In data set [2] the target is T2, hNav1.7 (Homo sapiens, UniProt Q15858). Briefly: cell-based. Format: cell-based.
Data set [3] concerns TTX-sensitive Nav channels in mouse DRG neuron. Format: cell-based.
Data set [4] has as its target T3, hNav1.3 (Homo sapiens, UniProt Q9NY46). Format: cell-based.
Data set [5] concerns the target T4, hNav1.4 (Homo sapiens, UniProt P35499). The data set is classed as cell-based.
Data set [6] concerns TTX-resistant Nav channels in mouse DRG neuron. Format: cell-based.
Data set [7] is described as follows: in vitro. Conditions: monkey, plasma.
The conditions of data set [8]: human plasma, 37° C., incubation 0 hr.
The conditions of data set [9]: cyno plasma, 37° C., incubation 0 hr.
The nature of data set [10]: in vitro. Conditions: human, plasma.
Data set [11] has as its target T2, hNav1.7. Briefly: cell-based. The data set is classed as cell-based. Conditions: PatchXpress; * = at high concentrations compound would wash off slowly or not at all; read-out: PX hNav1.7 Tonic IC50.
Data set [12] concerns the target T1, hNav1.5. Briefly: cell-based. Conditions: PatchXpress; * = at high concentrations compound would wash off slowly or not at all; read-out: PX hNav1.5 Tonic IC50.
Data set [13] addresses T4, hNav1.4. In words: cell-based. Conditions: PatchXpress; * = at high concentrations compound would wash off slowly or not at all; read-out: PX hNav1.4 Tonic IC50.
The target of data set [14] is T4, hNav1.4. In words: cell-based. Conditions: for IC50: IonWorks Quattro, read-out: IC50 Nav1.4. A general note: The patch-clamp technique gives a direct electrical read-out from membranes.
For data set [15] the following is noted: mouse plasma, 37° C., incubation time 0 hr (normalisation point).
Data set [16] deals with T3, hNav1.3. In words: cell-based. Conditions: IonWorks Quattro; read-out: IC50 Nav1.3.
A short description of data set [17]: in vitro. Conditions: rat, plasma.
Data set [18] in a line: in vitro. Conditions: mouse, plasma.
Data set [19] has as its target T1, hNav1.5. In words: cell-based. Conditions: IonWorks Quattro; read-out: IC50 Nav1.5.
For data set [20] the following is noted: rat plasma, 37° C., incubation time 0 hr (normalisation point).
Data set [21] has as its target T2, hNav1.7. In words: cell-based. Conditions: IonWorks Quattro; read-out: IC50 Nav1.7.
For data set [22], the system named is central neuronal sodium channels in rat hippocampus neurons. Conditions: cited from earlier work.
For data set [23] the following is noted: in vivo; cited from earlier work.
The subject of another data set is mice. Conditions: mouse, in vivo; cited from earlier work.

Several values for one entry are separate records, joined by “and”; a condition that tells them apart may be missing. Identical values can stand only once. Entries after “also recorded” stand apart in the source; their conditions may differ. Like-named read-outs stand apart in the source and are kept apart here. A value given as a limit tells only on which side of the number the result lay.

T3 sequence (Q9NY46 whole entry): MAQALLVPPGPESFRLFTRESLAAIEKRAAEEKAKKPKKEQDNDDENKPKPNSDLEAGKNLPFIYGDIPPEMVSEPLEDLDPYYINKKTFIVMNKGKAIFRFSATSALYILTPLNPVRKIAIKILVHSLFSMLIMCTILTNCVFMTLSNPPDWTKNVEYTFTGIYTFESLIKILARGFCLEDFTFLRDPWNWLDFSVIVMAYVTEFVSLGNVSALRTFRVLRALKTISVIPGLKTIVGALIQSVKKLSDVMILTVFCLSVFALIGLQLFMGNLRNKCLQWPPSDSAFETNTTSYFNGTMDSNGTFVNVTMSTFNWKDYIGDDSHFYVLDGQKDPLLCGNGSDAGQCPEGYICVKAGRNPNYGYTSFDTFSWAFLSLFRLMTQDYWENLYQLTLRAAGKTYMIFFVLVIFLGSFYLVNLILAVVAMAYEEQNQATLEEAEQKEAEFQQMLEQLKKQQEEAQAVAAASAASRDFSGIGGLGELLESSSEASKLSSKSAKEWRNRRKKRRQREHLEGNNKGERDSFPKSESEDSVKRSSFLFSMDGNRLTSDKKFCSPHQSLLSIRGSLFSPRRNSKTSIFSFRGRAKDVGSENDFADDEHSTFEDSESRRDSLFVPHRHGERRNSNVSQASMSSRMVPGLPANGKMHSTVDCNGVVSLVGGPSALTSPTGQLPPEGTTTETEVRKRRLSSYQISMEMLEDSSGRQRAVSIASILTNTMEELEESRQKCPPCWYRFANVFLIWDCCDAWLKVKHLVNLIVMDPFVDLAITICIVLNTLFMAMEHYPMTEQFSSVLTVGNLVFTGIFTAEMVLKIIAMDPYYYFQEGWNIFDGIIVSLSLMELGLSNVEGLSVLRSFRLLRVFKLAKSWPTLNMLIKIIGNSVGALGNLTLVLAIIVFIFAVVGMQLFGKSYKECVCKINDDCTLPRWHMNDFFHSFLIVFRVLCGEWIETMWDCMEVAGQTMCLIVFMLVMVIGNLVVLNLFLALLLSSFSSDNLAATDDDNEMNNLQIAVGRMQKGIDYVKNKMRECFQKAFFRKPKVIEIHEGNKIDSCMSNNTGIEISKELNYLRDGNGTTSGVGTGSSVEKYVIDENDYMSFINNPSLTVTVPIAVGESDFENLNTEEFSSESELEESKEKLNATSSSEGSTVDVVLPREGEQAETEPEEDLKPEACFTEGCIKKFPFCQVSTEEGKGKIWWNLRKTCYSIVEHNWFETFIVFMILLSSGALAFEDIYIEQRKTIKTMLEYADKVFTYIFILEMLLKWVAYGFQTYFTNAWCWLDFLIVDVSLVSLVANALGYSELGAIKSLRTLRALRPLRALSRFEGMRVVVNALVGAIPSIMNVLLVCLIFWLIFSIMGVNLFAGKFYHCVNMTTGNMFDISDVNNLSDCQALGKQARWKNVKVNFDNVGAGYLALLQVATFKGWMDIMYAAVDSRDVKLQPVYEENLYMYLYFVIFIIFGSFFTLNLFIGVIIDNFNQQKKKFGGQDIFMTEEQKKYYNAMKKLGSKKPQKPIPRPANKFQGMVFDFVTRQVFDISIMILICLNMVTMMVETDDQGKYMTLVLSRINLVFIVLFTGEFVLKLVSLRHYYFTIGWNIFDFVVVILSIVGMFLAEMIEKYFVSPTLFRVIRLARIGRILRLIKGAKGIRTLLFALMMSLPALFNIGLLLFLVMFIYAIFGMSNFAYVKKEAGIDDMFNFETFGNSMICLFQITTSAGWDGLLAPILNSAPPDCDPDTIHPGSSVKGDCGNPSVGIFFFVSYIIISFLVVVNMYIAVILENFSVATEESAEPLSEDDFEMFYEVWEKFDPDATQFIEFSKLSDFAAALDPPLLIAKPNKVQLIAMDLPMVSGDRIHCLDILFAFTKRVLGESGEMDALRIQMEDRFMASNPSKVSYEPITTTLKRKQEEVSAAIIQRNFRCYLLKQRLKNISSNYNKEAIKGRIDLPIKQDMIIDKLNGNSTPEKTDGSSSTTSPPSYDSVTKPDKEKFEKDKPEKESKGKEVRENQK
T2 sequence (Q15858 whole entry): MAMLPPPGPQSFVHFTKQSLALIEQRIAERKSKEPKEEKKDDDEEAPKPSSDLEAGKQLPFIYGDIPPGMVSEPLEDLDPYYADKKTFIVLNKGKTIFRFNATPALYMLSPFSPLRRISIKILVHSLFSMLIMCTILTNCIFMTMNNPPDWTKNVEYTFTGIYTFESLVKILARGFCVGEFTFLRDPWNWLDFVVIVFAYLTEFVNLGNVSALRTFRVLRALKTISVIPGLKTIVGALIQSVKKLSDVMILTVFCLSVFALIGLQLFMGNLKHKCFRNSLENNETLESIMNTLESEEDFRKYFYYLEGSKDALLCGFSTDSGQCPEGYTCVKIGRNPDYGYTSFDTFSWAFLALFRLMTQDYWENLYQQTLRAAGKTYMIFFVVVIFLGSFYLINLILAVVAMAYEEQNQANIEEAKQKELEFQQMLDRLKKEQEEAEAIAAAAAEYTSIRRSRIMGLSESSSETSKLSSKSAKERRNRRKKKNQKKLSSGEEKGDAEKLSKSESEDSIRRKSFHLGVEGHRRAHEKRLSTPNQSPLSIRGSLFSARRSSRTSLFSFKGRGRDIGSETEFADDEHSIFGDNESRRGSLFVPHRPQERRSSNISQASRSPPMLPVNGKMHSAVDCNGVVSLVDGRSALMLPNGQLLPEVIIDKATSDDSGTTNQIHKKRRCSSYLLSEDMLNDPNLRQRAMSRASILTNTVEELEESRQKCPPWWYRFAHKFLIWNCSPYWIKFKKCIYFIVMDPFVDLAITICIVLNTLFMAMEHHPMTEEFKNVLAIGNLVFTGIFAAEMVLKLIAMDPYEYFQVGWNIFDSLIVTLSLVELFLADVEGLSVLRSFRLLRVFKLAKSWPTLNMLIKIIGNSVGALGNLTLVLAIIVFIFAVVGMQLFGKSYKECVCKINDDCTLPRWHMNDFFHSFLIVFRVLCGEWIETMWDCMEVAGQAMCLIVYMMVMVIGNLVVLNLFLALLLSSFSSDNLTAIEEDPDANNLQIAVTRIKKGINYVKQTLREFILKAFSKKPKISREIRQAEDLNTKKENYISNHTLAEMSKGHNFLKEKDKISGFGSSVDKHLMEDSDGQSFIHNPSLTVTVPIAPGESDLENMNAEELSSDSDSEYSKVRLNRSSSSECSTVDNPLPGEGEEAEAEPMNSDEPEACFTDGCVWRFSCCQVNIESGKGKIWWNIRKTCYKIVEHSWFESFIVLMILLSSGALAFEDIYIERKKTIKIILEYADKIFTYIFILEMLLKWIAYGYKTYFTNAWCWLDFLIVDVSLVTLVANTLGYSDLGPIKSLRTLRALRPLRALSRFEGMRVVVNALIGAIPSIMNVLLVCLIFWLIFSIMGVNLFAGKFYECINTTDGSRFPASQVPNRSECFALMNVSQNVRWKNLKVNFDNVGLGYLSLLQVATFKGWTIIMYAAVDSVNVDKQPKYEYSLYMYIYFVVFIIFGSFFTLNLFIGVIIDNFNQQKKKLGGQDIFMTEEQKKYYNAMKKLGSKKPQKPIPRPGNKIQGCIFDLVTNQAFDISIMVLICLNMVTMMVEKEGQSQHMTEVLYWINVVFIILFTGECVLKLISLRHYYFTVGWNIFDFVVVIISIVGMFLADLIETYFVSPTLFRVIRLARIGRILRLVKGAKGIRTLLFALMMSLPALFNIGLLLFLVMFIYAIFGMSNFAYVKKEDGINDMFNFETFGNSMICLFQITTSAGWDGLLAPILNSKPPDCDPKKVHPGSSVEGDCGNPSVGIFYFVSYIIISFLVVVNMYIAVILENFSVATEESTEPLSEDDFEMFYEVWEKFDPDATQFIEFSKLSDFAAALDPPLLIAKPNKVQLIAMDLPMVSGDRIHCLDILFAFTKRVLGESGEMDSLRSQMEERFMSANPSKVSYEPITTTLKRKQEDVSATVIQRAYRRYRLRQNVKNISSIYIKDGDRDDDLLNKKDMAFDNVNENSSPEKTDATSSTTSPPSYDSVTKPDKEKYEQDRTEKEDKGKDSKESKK

For `CC[C@H](C)[C@H](NC(=O)[C@@H](NC(=O)[C@H](CCCCN)NC(=O)[C@H](CCCNC(=N)N)NC(=O)[C@@H]1CSSC[C@@H]2NC(=O)[C@H](C)NC(=O)[C@H](CCCNC(=N)N)NC(=O)[C@H](CCCCN)NC(=O)[C@H](CO)NC(=O)[C@H](CC(=O)O)NC(=O)[C@@H]3CSSC[C@H](NC(=O)[C@H](CCCNC(=N)N)NC(=O)[C@H](CC(C)C)NC(=O)CNC(=O)[C@H](CCC(=O)O)NC(=O)[C@H](CSSC[C@H](NC(=O)[C@@H](N)Cc4ccc(O)cc4)C(=O)N[C@@H](CCC(N)=O)C(=O)N[C@@H](CCCCN)C(=O)N[C@@H](Cc4c[nH]c5ccccc45)C(=O)N[C@@H](CCSC)C(=O)N[C@@H](Cc4c[nH]c5ccccc45)C(=O)N[C@@H]([C@@H](C)O)C(=O)N3)NC2=O)C(=O)N[C@@H](CCCCN)C(=O)N[C@@H](CC(C)C)C(=O)N[C@@H](Cc2c[nH]c3ccccc23)C(=O)N1)[C@@H](C)CC)C(N)=O` [SEQ ID NO: 2, JzTx-V(1-29), reference compound], on hNav1.8, the “inhibition of hNav1.8 current” value was “only partial inhibition”. Moreover, the “block of hNav1.5 current” value on hNav1.5 [1] is “blocked most Nav1.5 current; also recorded: nearly complete inhibition”. At hNav1.7 [2], the “block of hNav1.7 current” value is given as “blocked all Nav1.7 current” and the “inhibition of hNav1.7 current” value is “complete inhibition”. Further, the “block of TTX-sensitive Nav current” value in data set [3] was “completely blocked TTX-sensitive Nav current; also recorded: blocked nearly all TTX-sensitive Nav current; also recorded: almost complete inhibition”. For the same compound, the “block of hNav1.3 current” value at hNav1.3 [4] is “completely blocked Nav1.3 current; also recorded: complete inhibition”. On hNav1.4 [5], the “block of hNav1.4 current” value was “completely blocked Nav1.4 current; also recorded: complete inhibition”. Further, the “effect on TTX-resistant Nav current” value in [6] is “nominal effect on peak TTX-resistant current but prolonged the level of TTX-resistant current at 40 msec; also recorded: only partial inhibition”.

In “in vitro [7]”, `CC[C@H](C)[C@H](NC(=O)[C@H](CO)NC(=O)[C@H](CCCCN)NC(=O)[C@H](CCCNC(=N)N)NC(=O)[C@@H]1CSSC[C@@H]2NC(=O)[C@H](C)NC(=O)[C@H](CCCNC(=N)N)NC(=O)[C@H](CCCCN)NC(=O)[C@H](CO)NC(=O)[C@H](CC(=O)O)NC(=O)[C@@H]3CSSC[C@H](NC(=O)[C@H](CCC(=O)O)NC(=O)[C@H](CC(C)C)NC(=O)CNC(=O)[C@H](CCC(=O)O)NC(=O)[C@H](CSSC[C@H](NC(=O)[C@@H](N)Cc4ccc(O)cc4)C(=O)N[C@@H](CCC(N)=O)C(=O)N[C@@H](CCCCN)C(=O)N[C@@H](Cc4c[nH]c5ccccc45)C(=O)N[C@@H](CCSC)C(=O)N[C@@H](Cc4c[nH]c5ccccc45)C(=O)N[C@@H]([C@@H](C)O)C(=O)N3)NC2=O)C(=O)N[C@@H](CCCCN)C(=O)N[C@@H](CC(C)C)C(=O)N[C@@H](Cc2c[nH]c3ccccc23)C(=O)N1)C(N)=O` [SEQ ID NO: 138, [Glu20;Ser28]JzTx-V(1-29)] returned a share remaining at 2 h of 78%, a fraction remaining at 4 h of 75%, a share remaining at 6 h of 69% and an amount remaining at 8 h of 62%. For the same compound, the fraction remaining at 24 h in the data set “in vitro [7]” came to 59%. Also, the “% Peptide Remaining” value in data set [8] turned out to be 100%. Further, in data set [9], the “% Peptide Remaining” value came to 100%. In “in vitro [10]”, this compound gave a fraction remaining at 2 h of 86%, a share remaining at 4 h of 82%, a share remaining at 6 h of 72% and an amount remaining at 8 h of 68%. The compound also displayed a share remaining at 24 h in “in vitro [10]” of 49%.

For the compound `CC[C@H](C)[C@H](NC(=O)[C@H](CCCCN)NC(=O)[C@H](CCCNC(=N)N)NC(=O)[C@@H]1CSSC[C@@H]2NC(=O)[C@H](C)NC(=O)[C@H](CCCNC(=N)N)NC(=O)[C@H](CCCCN)NC(=O)[C@H](CO)NC(=O)[C@H](CC(=O)O)NC(=O)[C@@H]3CSSC[C@H](NC(=O)[C@H](CCC(=O)O)NC(=O)[C@H](CC(C)C)NC(=O)CNC(=O)[C@H](CCC(=O)O)NC(=O)[C@H](CSSC[C@H](NC(=O)[C@@H](N)Cc4ccc(O)cc4)C(=O)N[C@@H](CCC(N)=O)C(=O)N[C@@H](CCCCN)C(=O)N[C@@H](Cc4c[nH]c5ccccc45)C(=O)N[C@@H](CCSC)C(=O)N[C@@H](Cc4c[nH]c5ccccc45)C(=O)N[C@@H]([C@@H](C)O)C(=O)N3)NC2=O)C(=O)N[C@@H](CCCCN)C(=O)N[C@@H](CC(C)C)C(=O)N[C@@H](Cc2c[nH]c3ccccc23)C(=O)N1)C(=O)N[C@@H](Cc1c[nH]c2ccccc12)C(N)=O` [compound 112], the IC50 at hNav1.7 [11] is 2.8 nM and 0.67 nM and 1.3 nM and 0.5 nM and 1.41 nM and 2.15 nM and 1.82 nM and 2.12 nM; at hNav1.5 [12], 3420 nM and 3950 nM and 4410 nM and 1320 nM and 1620 nM; at hNav1.4 [13], 1130 nM and 824 nM and 1050 nM and 1350 nM and 2370 nM; at hNav1.4 [14], > 5000 nM; on hNav1.7 [2] (WCPC, hNav1.7, partially inactivated, n=2) it was 0.23 nM; on hNav1.3 [16] it was 3620 nM. Also, the concentration for half-maximal inhibition (IC50) is 6900 nM on hNav1.5 [19]; 30 nM and 17 nM on hNav1.7 [21]. Also, the “1.x/1.7, partially inactivated” value on hNav1.7 [2] (hNav1.7 vs hNav1.7, partially inactivated) amounted to 1; in [3] it was 1213; in data set [3] (mTTX-S (fresh DRG) vs hNav1.7, partially inactivated) it was 917. Further, the “% Peptide Remaining” value in [15] and in [20] was 100% throughout. Also, the amount remaining at 2 h was determined as 95% in the data set “in vitro [17]” and 88% in “in vitro [18]”. The amount remaining at 4 h in “in vitro [17]” stood at 93%; in the data set “in vitro [18]”, 82%. Further, the figures for the amount remaining at 6 h in the data set “in vitro [17]” and in “in vitro [18]” were 92% and 85%, respectively. Besides, the amount remaining at 8 h in “in vitro [17]” came out at 89%; in the data set “in vitro [18]”, 85%. The fraction remaining at 24 h in the data set “in vitro [17]” is 70%; in “in vitro [18]”, 77%.

Turning to `CC[C@H](C)[C@H](NC(=O)[C@H](CO)NC(=O)[C@H](CCCCN)NC(=O)[C@H](CCCNC(=N)N)NC(=O)[C@@H]1CSSC[C@@H]2NC(=O)[C@H](C)NC(=O)[C@H](CCCNC(=N)N)NC(=O)[C@H](CCCCN)NC(=O)[C@H](CO)NC(=O)[C@H](CC(=O)O)NC(=O)[C@@H]3CSSC[C@H](NC(=O)[C@H](CCC(=O)O)NC(=O)[C@H](CC(C)C)NC(=O)CNC(=O)[C@H](CCC(=O)O)NC(=O)[C@H](CSSC[C@H](NC(=O)[C@@H](N)Cc4ccc(O)cc4)C(=O)N[C@@H](CCC(N)=O)C(=O)N[C@@H](CCCCN)C(=O)N[C@@H](Cc4c[nH]c5ccccc45)C(=O)N[C@@H](CCSC)C(=O)N[C@@H](Cc4c[nH]c5ccccc45)C(=O)N[C@@H]([C@@H](C)O)C(=O)N3)NC2=O)C(=O)N[C@@H](CCCCN)C(=O)N[C@@H](CC(C)C)C(=O)N[C@@H](Cc2c[nH]c3ccccc23)C(=O)N1)C(N)=O` [compound 138], the IC50 is 3.3 nM and 2 nM and 0.4 nM at hNav1.7 [11]; > 10000 nM and 14600 nM on hNav1.5 [12]; 4790 nM and 3580 nM and 2970 nM at hNav1.4 [13]; > 5000 nM on hNav1.4 [14]; > 5000 nM at hNav1.3 [16]; 13900 nM and 9200 nM on hNav1.5 [19]. On hNav1.7 [21], the IC50 is 80 nM and 150 nM. On hNav1.4 [14] (ratio of IonWorks Quattro IC50 values), the Nav1.4/Nav1.7 was 62 and 34. Moreover, the “% Peptide Remaining” value in [15] and in data set [20] was 100% each time. The amount remaining at 2 h came out at 90% in the data set “in vitro [17]” and 64% in “in vitro [18]”. For the same compound, the share remaining at 4 h in the data set “in vitro [17]” came out at 81%; in the data set “in vitro [18]” it was 61%. Also, the share remaining at 6 h in “in vitro [17]” is 71%; in “in vitro [18]” it was 55%. Besides, the fraction remaining at 8 h in “in vitro [17]” was determined as 67%; in “in vitro [18]”, 51%. The values for the fraction remaining at 24 h in “in vitro [17]” and in “in vitro [18]” were 59% and 50%, respectively.

Turning to Huwentoxin-IV [SEQ ID NO: 528], the “less potent against central neuronal sodium channels” value in [22] is 12 fold.

Regarding “YCQKWMWTCDSERKCCEGMVCRLWCKKKLW [SEQ ID NO: 531, ProTx-II]”, the “efficacy in mechanical hyperalgesia study” value in [23] is on record as “not efficacious”.

With μ-Conotoxin KIIIA [SEQ ID NO: 530], the motor impairment result in the data set with mice is reported as “some motor impairment but not paralytic activity”.

What is called share remaining is what is left of the initial amount, in per cent. A lower share remaining goes with a greater loss. In general, IC50 refers to the midpoint of a concentration-inhibition curve.
